Results published in article PMC9532399, “The lysosomal transporter TAPL has a dual role as peptide translocator and phosphatidylserine floppase” (Nature Communications, 2022).

Molecular target: T1, mouse TAPL ΔTMD0 (Mus musculus, UniProt Q9JJ59)
T1 construct: thrombin cleavage site (C); eGFP (C); 10XHis (C); made in house; host or cells: Trichoplusia ni High Five (Hi5) insect cells, baculovirus (pVL1393)
T1 sequence (Q9JJ59 143-762): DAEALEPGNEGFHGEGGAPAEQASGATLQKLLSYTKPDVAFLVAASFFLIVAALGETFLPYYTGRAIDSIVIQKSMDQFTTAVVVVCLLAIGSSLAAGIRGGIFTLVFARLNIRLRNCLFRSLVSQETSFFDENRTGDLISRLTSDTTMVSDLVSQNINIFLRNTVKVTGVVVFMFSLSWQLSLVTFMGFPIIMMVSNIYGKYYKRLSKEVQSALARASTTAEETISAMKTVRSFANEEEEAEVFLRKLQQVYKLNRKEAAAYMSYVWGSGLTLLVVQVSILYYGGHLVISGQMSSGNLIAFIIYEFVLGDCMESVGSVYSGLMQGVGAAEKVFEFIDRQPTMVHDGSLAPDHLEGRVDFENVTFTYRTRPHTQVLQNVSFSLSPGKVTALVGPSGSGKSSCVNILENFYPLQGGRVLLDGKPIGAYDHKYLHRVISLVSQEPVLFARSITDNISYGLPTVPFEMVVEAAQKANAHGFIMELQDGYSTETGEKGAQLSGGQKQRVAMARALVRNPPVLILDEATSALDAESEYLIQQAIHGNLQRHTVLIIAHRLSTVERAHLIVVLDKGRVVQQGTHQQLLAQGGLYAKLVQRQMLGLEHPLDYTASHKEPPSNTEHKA
Test: Dithionite-based flip-flop (floppase) assay of NBD*-labeled lipids, ΔTMD0 proteoliposomes
Format: biochemical
Conditions: for fluorescence remaining after dithionite: 10 mM dithionite
Protocol: All lipids used in reconstitution were purchased from Avanti Polar Lipids, Inc. (purity > 99%). The in vitro flip–flop assay was performed using NBD* dye-labeled proteoliposomes as described previously. Briefly, E. coli polar lipids and egg PC were mixed in a 1:1 molar ratio, and 0.5% (mol/mol) NBD*-lipid was added. The lipid mixture was then dried under nitrogen gas. The NBD*-lipids used were 18:1-06:0 NBD*-PS (1-oleoyl-2-{6-[(7-nitro-2-1,3-benzoxadiazol-4-yl)amino]hexanoyl}-sn-glycero-3-phosphoserine), 18:1-06:0 NBD*-PC (1-oleoyl-2-{6-[(7-nitro-2-1,3-benzoxadiazol-4-yl)amino]hexanoyl}-sn-glycero-3-phosphocholine), 18:1-06:0 NBD*-PG (1-oleoyl-2-{6-[(7-nitro-2-1,3-benzoxadiazol-4-yl)amino]hexanoyl}-sn-glycero-3-[phospho-rac-(1-glycerol)]), 18:1-06:0 NBD*-PE (1-oleoyl-2-{6-[(7-nitro-2-1,3-benzoxadiazol-4-yl)amino]hexanoyl}-sn-glycero-3-phosphoethanolamine), and 25-NBD*-Cholesterol (25-[N-[(7-nitro-2-1,3-benzoxadiazol-4-yl)methyl]amino]−27-norcholesterol). Thin lipid films were solubilized in 20 mM HEPES–NaOH pH 8.0, 200 mM NaCl and 5% (v/v) glycerol, incubated at RT for 30 min and subjected to 5 freeze–thaw cycles. After extrusion with a Mini-Extruder at 65 °C, final lipid concentrations were determined by phosphorus assays. Briefly, 10 μL of extruded lipid was added to 10 μL of 2% (w/v) ammonium molybdate and 300 μL of concentrated perchloric acid. The mixture was heated at 250 °C for 30 min, then cooled to RT and mixed with 1.5 mL of 0.4% (w/v) ammonium molybdate and 250 μL of 9% (w/v) L-ascorbic acid. It was again heated at 100 °C for 6 min and cooled to RT. Lipid concentrations were calculated from the absorbance at 820 nm using a standard curve prepared with NaH2PO4 solution. After accurately determining the lipid concentration, DM-purified protein and 5 mM lipid suspension (solubilized in 5 mM DM) were mixed 1:25 (w/w). After incubation at 4 °C for 1.5 h, DM detergent was removed with 75 mg Bio-beads SM-2 by periodic gentle shaking for 1 h at 4 °C (Supplementary Fig. 5a). The beads were replaced once, followed by an additional incubation at 4 °C for 2 h to completely remove detergent. The resulting proteoliposomes were collected by ultracentrifugation at 200,000×g for 1.5 h at 4 °C.
To measure the flip–flop activity, 10 μL of 2 mM NBD*-labeled proteoliposomes were added to 100 μL of reaction buffer (20 mM HEPES–NaOH pH 8.0, 200 mM NaCl, 5 mM ATP and 5% (v/v) glycerol) in the presence of 2 mM MgCl2 (or NaCl), and incubated at 37 °C for 1 h. The mixture was transferred to a 96-well plate and time-dependent fluorescence (λex/λem = 460/538 nm) was recorded every 30 s for 26 min using a fluorescence spectrophotometer (Gemini XPS). After the baseline fluorescence had stabilized, 10 mM sodium dithionite was added to quench the fluorescence of NBD*-lipid present in the outer leaflets of the liposomes. The initial rapid drop and subsequent slow decline in fluorescence intensity were monitored. When a new steady state was established, 1% (v/v) Triton X-100 was added to completely disrupt the liposomes. The net percentage of NBD*-lipid translocated across the lipid bilayer was calculated from the following equation[72]: the percentage of protected NBD*-lipid in the inner leaflet = [(FD−F0)/(FT−F0)]×100, and that of accessible NBD*-lipid in the outer leaflet = [(FT−FD)/(FT−F0)]×100, where FT is the total fluorescence of the sample before the addition of dithionite, FD is the fluorescence of the sample after quenching with dithionite, and F0 is any residual fluorescence of the sample after solubilization with Triton X-100. Fluorescence values (FT, FD, F0) were calculated as the averages of 5 points on the respective plateau lines. The ΔTMD0-mediated lipid floppase activity was determined by subtracting the percentage of NBD*-lipid fluorescence measured in the presence of Na^+/ATP from that measured in the presence of Mg^2+/ATP.

Molecule: CCCCCCCC/C=C\CCCCCCCC(=O)OC[C@H](COP(=O)(O)OC[C@H](N)C(=O)O)OC(=O)CCCCCNc1ccc([N+](=O)[O-])c2nonc12 [NBD*-PS, 1-oleoyl-2-{6-[(7-nitro-2-1,3-benzoxadiazol-4-yl)amino]hexanoyl}-sn-glycero-3-phosphoserine]
- difference of inner leaflet fluorescence with and without hydrolysable ATP (Mg2+/ATP minus Na+/ATP): ~ 4.5%
- NBD*-PS fluorescence intensity (net percentage transported outer to inner leaflet) (Mg2+/ATP minus Na+/ATP, 5 mM ATP, 37 °C 1 h, no peptide, no POPS, mean n=9): 4.53%
- NBD*-PS fluorescence intensity (net percentage transported) (Mg2+/ATP minus Na+/ATP, with 9-mer peptide, mean n=5): 2.081%
- NBD*-PS fluorescence intensity (net percentage transported) (Mg2+/ATP minus Na+/ATP, with 10% (mol/mol) POPS, mean n=5): 2.6371%
- fluorescence remaining after dithionite (Mg2+/ATP, % of original value): ~ 36.2%
- ATP-dependent lipid transport by ΔTMD0 (NBD*-labeled lipid, PE, PG, PC and cholesterol data not shown): high
- fluorescence remaining after dithionite (Na+/ATP, % of original fluorescence): ~ 31.7%
- NBD*-PS fluorescence intensity (net percentage transported) (no peptide, no POPS, replicate I): 5.0115%
- NBD*-PS fluorescence intensity (net percentage transported) (no peptide, no POPS, replicate II): 5.082%
- NBD*-PS fluorescence intensity (net percentage transported) (no peptide, no POPS, replicate III): 5.234%
- NBD*-PS fluorescence intensity (net percentage transported) (no peptide, no POPS, replicate IV): 3.911%
- NBD*-PS fluorescence intensity (net percentage transported) (no peptide, no POPS, replicate IX): 4.577%
- NBD*-PS fluorescence intensity (net percentage transported) (no peptide, no POPS, replicate V): 3.922%
- NBD*-PS fluorescence intensity (net percentage transported) (no peptide, no POPS, replicate VI): 4.247%
- NBD*-PS fluorescence intensity (net percentage transported) (no peptide, no POPS, replicate VII): 4.366%
- NBD*-PS fluorescence intensity (net percentage transported) (no peptide, no POPS, replicate VIII): 4.416%
- NBD*-PS fluorescence intensity (net percentage transported) (with 9-mer peptide, replicate I): 2.499%
- NBD*-PS fluorescence intensity (net percentage transported) (with 9-mer peptide, replicate II): 2.553%
- NBD*-PS fluorescence intensity (net percentage transported) (with 9-mer peptide, replicate III): 1.795%
- NBD*-PS fluorescence intensity (net percentage transported) (with 9-mer peptide, replicate IV): 1.566%
- NBD*-PS fluorescence intensity (net percentage transported) (with 9-mer peptide, replicate V): 1.9894%
- NBD*-PS fluorescence intensity (net percentage transported) (with 10% (mol/mol) POPS, replicate I): 2.817%
- NBD*-PS fluorescence intensity (net percentage transported) (with 10% (mol/mol) POPS, replicate II): 2.678%
- NBD*-PS fluorescence intensity (net percentage transported) (with 10% (mol/mol) POPS, replicate III): 2.164%
- NBD*-PS fluorescence intensity (net percentage transported) (with 10% (mol/mol) POPS, replicate IV): 2.878%
- NBD*-PS fluorescence intensity (net percentage transported) (with 10% (mol/mol) POPS, replicate V): 2.648%
- true active floppase activity of the transporter (ΔTMD0 minus E664Q): ~ 2.6%

Molecule: RRYQNSTC^5-IAFL [9-mer, 5-IAF-labeled peptide of 9 residues (RRYQNSTC^5-IAFL)]
- effect on translocation of NBD*-PS (10% (mol/mol) unlabeled POPS, or presence of the 9-mer peptide): inhibited
